{"source": "patent US20240424048A1", "about": "“CHINESE MEDICINE FORMULA FOR TREATING TUMORS AND/OR PULMONARY NODULES AND PREPARATION METHOD THEREOF” (priority 2023, published 2024)", "key": {"[1]": {"details": "15 mg/kg", "experimental": "(§1) a first batch of experiments: C57BL/6 mice were randomly divided into 6 groups according to body weight. • Saline control group administered with physiological saline 20 ml/kg • Solvent control group administered with 35-degree white wine 20 ml/kg • Cyclophosphamide administered with 0.075% 15 mg/20 group cyclophosphamide ml/kg • Low dose group of anti-administered with 20% anti-lung cancer 4 ml/20 lung cancer vinum ml/kg • Mid dose group of anti-administered with 40% anti-lung cancer 8 ml/20 lung cancer vinum ml/kg • High dose group of anti-Administered with 80% anti-lung 16 ml/20 m lung cancer vinum cancer vinum l/kg • a second batch of experiments: randomly divided into 6 groups based on body weight: • Saline control group administered with physiological saline 20 ml/kg • Solvent control group administered with 35-degree white wine 20 ml/kg • Cyclophosphamide administered with 0.075% 15 mg/20 group cyclophosphamide ml/kg • Low dose group of anti-administered with 10% anti-lung cancer 2 ml/20 lung cancer vinum ml/kg • Mid dose group of anti-administered with 20% anti-lung cancer 4 ml/20 lung cancer vinum ml/kg • High dose group of anti-administered with 40% anti-lung cancer 8 ml/20 lung cancer vinum ml/kg\n(§2) C57BL/6 mice were adaptively fed for 3-5 days, and an in vivo transplant tumor model was prepared using anti-tumor drug experimental methods. Each mouse was subcutaneously injected with 0.2 ml of cell suspension with a concentration of 2×10^7 cells/mL. On the second day, they were randomly divided into 6 groups based on body weight, with 20 mice in each group. Each group started administration the next day after tumor inoculation, and the drugs in each group were freshly prepared and administered at a dose of […], twice a day for 14, 16, or 21 consecutive days.\n(§3) The first batch of experiments: measure a tumor volume and plot a tumor growth curve once on the 8th, 10th, 12th, and 14th day of administration; after 14 days of administration, 10 mice in each group were weighed and euthanized. Tumors, spleens, lungs, and thymus were removed, weighed, tumor inhibition rate and organ coefficient were calculated; after 21 days of administration, 6 mice in each group were perfused with physiological saline and their lungs were removed, fixed with Bouin solution and the number of metastatic lung nodules was examined under a microscope.\n(§4) The second batch of experiments: measure the tumor volume and plot the tumor growth curve once on the 8th, 10th, 12th, 14th, and 16th day of administration; after 16 days of administration, 12 mice in each group were weighed and euthanized. Tumors, spleens, lungs, and thymus were removed, weighed, and the tumor inhibition rate and organ coefficient were calculated; after 21 days of administration, 6 mice in each group were perfused with physiological saline and their lungs were removed, fixed with Bouis solution and the number of metastatic lung nodules was examined under the microscope."}, "[2]": {"test_system": "Lewis lung cancer lung metastasis", "type": "in vivo, mouse", "details": "15 mg/kg; for Number of pulmonary nodules: after 21 days of administration", "experimental": "as §1\nC57BL/6 mice were adaptively fed for 3-5 days, and an in vivo transplant tumor model was prepared using anti-tumor drug experimental methods. Each mouse was subcutaneously injected with 0.2 ml of cell suspension with a concentration of 2×10^7 cells/mL. […]\nThe first batch of experiments: measure a tumor volume and plot a tumor growth curve once on the 8th, 10th, 12th, and 14th day of administration; after 14 days of administration, 10 mice in each group were weighed and euthanized. Tumors, spleens, lungs, and thymus were removed, weighed, tumor inhibition rate and organ coefficient were calculated; after 21 days of administration, 6 mice in each group were perfused with physiological saline and their lungs were removed, fixed with Bouin solution and the number of metastatic lung nodules was examined under a microscope. […]"}, "Lewis lung cancer": {"test_system": "Lewis lung cancer", "type": "in vivo, mouse", "details": "15 mg/kg", "text": "C57BL/6 mice, 6-8 weeks old, weighing 19-21 g, male, provided by Liaoning Changsheng Biotechnology Co., Ltd., certificate number: SYSK (Ji) 2018-0001. Two batches of experiments all used male C57BL/6 mice, which were adaptively raised in a laboratory for 3-5 days before the experiment.\nMouse Lewis lung cancer cells were provided by Jilin Cancer Research Institute and passaged and preserved in the laboratory. Lewis lung cancer cells were resuscitated, cells were expanded to 2-3×10^8 cells/mL, cells were collected, and cell density was adjusted to 2×10^7 cells/mL.\nas §1, §2, §3, §4"}, "[3]": {"details": "first batch, after 14 days of administration"}, "[4]": {"details": "second batch, after 16 days of administration"}}, "note": "Read-outs that look alike come from different tables or passages of the source. Marks after values point to notes of the source that are not given here."}
{"smiles": "O=P1(N(CCCl)CCCl)NCCCO1", "note": "(centres unmarked) [Cyclophosphamide]", "values": [{"measurement": "Toxicity (body weight, thymic coefficient, spleen coefficient of mice)", "setting": "[1]", "result": "significant toxic effects"}, {"measurement": "Weight before administration", "setting": "[1]; first batch, Table 3", "result": "20.30 ± 1.33", "unit": "g"}, {"measurement": "Lung coefficient", "setting": "[1]; [3]", "result": "7.26 ± 0.85"}, {"measurement": "Spleen coefficient", "setting": "[1]; [3]", "result": "3.40 ± 1.02"}, {"measurement": "Thymic coefficient", "setting": "[1]; [3]", "result": "1.11 ± 0.35"}, {"measurement": "Weight after administration", "setting": "[1]; [3]", "result": "20.30 ± 1.33", "unit": "g"}, {"measurement": "Weight after administration", "setting": "[1]; first batch, after 21 days of administration", "result": "21.81 ± 1.37", "unit": "g"}, {"measurement": "Weight after administration", "setting": "[1]; [4]", "result": "21.58 ± 0.79", "unit": "g"}, {"measurement": "Lung coefficient", "setting": "[1]; [4]", "result": "6.66 ± 0.72"}, {"measurement": "Spleen coefficient", "setting": "[1]; [4]", "result": "3.62 ± 0.86"}, {"measurement": "Thymic coefficient", "setting": "[1]; [4]", "result": "0.47 ± 0.16"}, {"measurement": "Weight after administration", "setting": "[1]; second batch, after 21 days of administration", "result": "22.02 ± 1.71", "unit": "g"}, {"measurement": "Effect on lung metastasis in Lewis lung cancer mice", "setting": "[2]; continuous administration for 21 days", "result": "can inhibit lung metastasis"}, {"measurement": "Number of pulmonary nodules", "setting": "[2]; first batch", "result": "6.17 ± 1.94"}, {"measurement": "Number of pulmonary nodules", "setting": "[2]; second batch", "result": "6.67 ± 1.21"}, {"measurement": "Volume of tumor", "setting": "Lewis lung cancer; first batch, 8 days", "result": "61.08##** mm^3"}, {"measurement": "Volume of tumor", "setting": "Lewis lung cancer; first batch, 10 days", "result": "244.09##** mm^3"}, {"measurement": "Volume of tumor", "setting": "Lewis lung cancer; first batch, 12 days", "result": "817.83##** mm^3"}, {"measurement": "Volume of tumor", "setting": "Lewis lung cancer; first batch, 14 days", "result": "953.67##** mm^3"}, {"measurement": "Tumor inhibition rate", "setting": "Lewis lung cancer; [3]", "result": 63.52, "unit": "%"}, {"measurement": "Weight of tumor", "setting": "Lewis lung cancer; [3]", "result": "0.59 ± 0.26", "unit": "g"}, {"measurement": "Volume of tumor", "setting": "Lewis lung cancer; second batch, 8 days", "result": "111.30##** mm^3"}, {"measurement": "Volume of tumor", "setting": "Lewis lung cancer; second batch, 10 days", "result": "165.52##** mm^3"}, {"measurement": "Volume of tumor", "setting": "Lewis lung cancer; second batch, 12 days", "result": "278.25##** mm^3"}, {"measurement": "Volume of tumor", "setting": "Lewis lung cancer; second batch, 14 days", "result": "371.57##** mm^3"}, {"measurement": "Volume of tumor", "setting": "Lewis lung cancer; second batch, 16 days", "result": "461.54##** mm^3"}, {"measurement": "Tumor inhibition rate", "setting": "Lewis lung cancer; [4]", "result": 67.43, "unit": "%"}, {"measurement": "Weight of tumor", "setting": "Lewis lung cancer; [4]", "result": "0.56 ± 0.22", "unit": "g"}, {"measurement": "Tumor inhibition rate", "setting": "Lewis lung cancer; summary of both batches, by gavage", "result": 65.48, "unit": "%"}]}
